These results are taken from patent US7897602B2, “Indolinone compounds as kinase inhibitors” (Development Center for Biotechnology, priority 2009, dated 2011).

The IC50 is the midpoint of a concentration-inhibition curve. As a reminder, the inhibition is the relative decrease from the control value, in per cent.

Assay [1] concerns the target T1, Aurora A kinase (Homo sapiens, UniProt O14965).
T1 construct: purchased Upstate
T1 sequence (O14965 1-403): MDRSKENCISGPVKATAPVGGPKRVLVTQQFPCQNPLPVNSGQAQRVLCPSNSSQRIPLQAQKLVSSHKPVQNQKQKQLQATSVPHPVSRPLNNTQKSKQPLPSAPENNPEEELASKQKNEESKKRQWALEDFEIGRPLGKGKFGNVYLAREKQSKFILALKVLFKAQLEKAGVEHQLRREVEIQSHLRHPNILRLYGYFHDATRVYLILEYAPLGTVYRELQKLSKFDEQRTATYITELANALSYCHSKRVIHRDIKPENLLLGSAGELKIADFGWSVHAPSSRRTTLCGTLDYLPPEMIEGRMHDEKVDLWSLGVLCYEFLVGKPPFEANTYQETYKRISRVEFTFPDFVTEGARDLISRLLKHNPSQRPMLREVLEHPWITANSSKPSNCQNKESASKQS
Put plainly: Aurora A kinase assay ([γ-33P]ATP, CHOCKtide substrate). The format is biochemical. In a few lines: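 Recombinant Aurora A (1 ng) or Aurora B (2.5 ng) incubated with test compound, CHOCKtide (1 μg) and [γ-33P]ATP/ATP at 10 μM (Aurora A) or 40 μM (Aurora B), 30 min at 33 °C. Stopped with phosphoric acid; filter-bound 33P counted; IC50 = half-maximal inhibition.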

Assay [2] has as its target T2, VEGFR2 kinase (Homo sapiens, UniProt P35968).
T2 construct: recombinant N-terminal 6×His-tagged VEGFR2 kinase domain construct expressed by baculovirus; 6xHis (N); made in house
Put plainly: VEGFR2 kinase assay (33P incorporation into Poly(Glu-Tyr)). Particulars: 500 nM test compound; read-out: Inhibition at 500 nM (%) VEGFr-2. Format: biochemical. How it is done:
Inhibition of VEGFR2 kinase activity by compounds disclosed herein was quantified by measuring the amount of [^33P] incorporated into the substrate in the presence of a test compound. Specifically, a reaction mixture with a final volume of 25 μL and containing 6.25 ng of VEGFR2 kinase (obtained by purifying recombinant N-terminal 6×His-tagged VEGFR2 kinase domain construct expressed by baculovirus), 5 μg of substrate (Poly (Glu-Tyr, 4:1, Sigma)), kinase reaction buffer (20 mM MOPS pH 7.0, 1 mM EDTA, 5% glycerol, 0.01% Brij-35, 0.1% β-mercaptoethanol, 1 mg/mL BSA, 100 μM ATP, 0.1 μCi per well [^33P]-γ-ATP (2,500-3,000 Ci/mmol), and 500 nM test compound (final concentration of DMSO was 4%) or 4% DMSO alone (as the control sample), was incubated at 30° C. for 30 minutes. The reaction was then stopped by adding 5 μL of 3% phosphoric acid solution. The resultant solution was transferred to and harvested by a filter plate (UniFilter-96 GF/B, PerkinElmer). The filter plate was then washed 20 times with d.d. H2O for 5 min followed by the addition of 30 μL of MicroScint™-20 Cocktail (PerkinElmer). After the plate was sealed, the retained radioactivity on the filter was counted using a TopCount scintillation detector (PerkinElmer). The percentage of inhibition rate of the test compound was calculated by dividing the retained radioactivity of the test sample with the retained radioactivity of the control sample and shown in Table 3.

T2 sequence (P35968 834-1162 limits assumed): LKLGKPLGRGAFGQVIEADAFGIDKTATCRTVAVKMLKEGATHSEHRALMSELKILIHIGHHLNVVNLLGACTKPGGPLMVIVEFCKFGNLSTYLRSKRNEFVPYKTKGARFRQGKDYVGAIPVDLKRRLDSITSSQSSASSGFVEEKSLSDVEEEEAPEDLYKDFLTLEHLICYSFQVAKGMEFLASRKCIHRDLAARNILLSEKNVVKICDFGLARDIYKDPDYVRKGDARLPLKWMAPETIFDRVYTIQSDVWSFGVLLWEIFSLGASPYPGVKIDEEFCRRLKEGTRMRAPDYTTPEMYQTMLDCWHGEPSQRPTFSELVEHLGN

In the case of `CCOC(=O)CCc1c(/C=C2\C(=O)Nc3ccccc32)[nH]c2c1C(=O)CCC2` [DCB-70049, (Z)-3-((3-(3-ethoxy-3-oxopropyl)-4-oxo-4,5,6,7-tetrahydro-1H-indol-2-yl)methylene)indolin-2-one], the IC50 in assay [1] was determined as 1780 nM. For the same molecule, the inhibition at 1 µM in assay [1] (1.0 μM test compound) amounted to 32.6%. Besides, in assay [2], the inhibition at 0.5 µM came to 79.7%.

In assay [1], `O=C(O)CCc1c(/C=C2\C(=O)Nc3ccccc32)[nH]c2c1C(=O)CCC2` [DCB-70052, (Z)-3-((3-carboxyethyl-4-oxo-4,5,6,7-tetrahydro-1H-indol-2-yl)methylene)indolin-2-one] had an IC50 of 209 nM. Also, in assay [1] (1.0 μM test compound), the inhibition at 1 µM turned out to be 74.8%. Moreover, the inhibition at 0.5 µM in assay [2] came to 85%.

Turning to `CCOC(=O)CCc1c(/C=C2\C(=O)Nc3ccc(F)cc32)[nH]c2c1C(=O)CCC2` [DCB-70053, (Z)-5-fluoro-3-((3-(3-ethoxy-3-oxopropyl)-4-oxo-4,5,6,7-tetrahydro-1H-indol-2-yl)methylene)indolin-2-one], the half-inhibitory concentration (IC50) in assay [1] was determined as 1980 nM. Moreover, in assay [1] (1.0 μM test compound, 1 µM), the “Aurora A kinase assay Inhibition at 1.0 μM (%)” value was determined as 38.2%. The inhibition at 0.5 µM in assay [2] is 85.2%.

Turning to `CCOC(=O)CCc1c(/C=C2\C(=O)Nc3ccc(Br)cc32)[nH]c2c1C(=O)CCC2` [DCB-70056, (Z)-5-bromo-3-((3-(3-ethoxy-3-oxopropyl)-4-oxo-4,5,6,7-tetrahydro-1H-indol-2-yl)methylene)indolin-2-one], the inhibition at 1 µM in assay [1] (1.0 μM test compound) was found to be 55%. For the same molecule, the inhibition at 0.5 µM in assay [2] worked out at 89.6%.

In turn, `O=C(O)CCc1c(/C=C2\C(=O)Nc3ccc(Br)cc32)[nH]c2c1C(=O)CCC2` [DCB-70057, (Z)-5-bromo-3-((3-carboxyethyl-4-oxo-4,5,6,7-tetrahydro-1H-indol-2-yl)methylene)indolin-2-one] had an IC50 in assay [1] of 211 nM. In addition, the inhibition at 1 µM in assay [1] (1.0 μM test compound) stood at 89.5%. For the same molecule, the inhibition at 0.5 µM in assay [2] turned out to be 94.9%.

Regarding `CCOC(=O)CCc1c(/C=C2\C(=O)Nc3ccc(-c4ccc(O)c(OC)c4)cc32)[nH]c2c1C(=O)CCC2` [DCB-70058, (Z)-5-(4-hydroxyl-3-methoxyphenyl)-3-((3-(3-ethoxy-3-oxopropyl)-4-oxo-4,5,6,7-tetrahydro-1H-indol-2-yl)methylene)indolin-2-one], the inhibition at 1 µM in assay [1] (1.0 μM test compound) was 17.7%. Further, the inhibition at 0.5 µM in assay [2] was 46.3%.

In assay [1], `COc1cc(-c2ccc3c(c2)/C(=C/c2[nH]c4c(c2CCC(=O)O)C(=O)CCC4)C(=O)N3)ccc1O` [DCB-70059, (Z)-5-(4-hydroxyl-3-methoxyphenyl)-3-((3-carboxyethyl-4-oxo-4,5,6,7-tetrahydro-1H-indol-2-yl)methylene)indolin-2-one] returned an IC50 of 357 nM. For the same molecule, in assay [1] (1.0 μM test compound), the inhibition at 1 µM came out at 76.1%. Besides, the inhibition at 0.5 µM in assay [2] was found to be 70.9%.

Turning to `CCOC(=O)CCc1c(/C=C2\C(=O)Nc3ccc([N+](=O)[O-])cc32)[nH]c2c1C(=O)CCC2` [DCB-70062, (Z)-5-nitro-3-((3-(3-ethoxy-3-oxopropyl)-4-oxo-4,5,6,7-tetrahydro-1H-indol-2-yl)methylene)indolin-2-one], in assay [1] (1.0 μM test compound), the inhibition at 1 µM was -7.2%. Further, the inhibition at 0.5 µM in assay [2] came out at 60.2%.

Regarding `O=C(O)CCc1c(/C=C2\C(=O)Nc3ccc([N+](=O)[O-])cc32)[nH]c2c1C(=O)CCC2` [DCB-70063, (Z)-5-nitro-3-((3-carboxyethyl-4-oxo-4,5,6,7-tetrahydro-1H-indol-2-yl)methylene)indolin-2-one], in assay [1], the concentration for half-maximal inhibition (IC50) is 724 nM. The inhibition at 1 µM in assay [1] (1.0 μM test compound) was 56.6%. The inhibition at 0.5 µM in assay [2] came to 82.7%.

`CCOC(=O)CCc1c(/C=C2\C(=O)Nc3ccc(S(=O)(=O)NC)cc32)[nH]c2c1C(=O)CCC2` [DCB-70064, (Z)-5-(N-methylsulfamoyl)-3-((3-(3-ethoxy-3-oxopropyl)-4-oxo-4,5,6,7-tetrahydro-1H-indol-2-yl)methylene)indolin-2-one] had a 50% inhibitory concentration (IC50) in assay [1] of 313 nM. Moreover, the inhibition at 1 µM in assay [1] (1.0 μM test compound) is 78.6%. Besides, in assay [2], the inhibition at 0.5 µM stood at 39%.

For `CNS(=O)(=O)c1ccc2c(c1)/C(=C/c1[nH]c3c(c1CCC(=O)O)C(=O)CCC3)C(=O)N2` [DCB-70065, (Z)-5-(N-methylsulfamoyl)-3-((3-carboxyethyl-4-oxo-4,5,6,7-tetrahydro-1H-indol-2-yl)methylene)indolin-2-one], in assay [1], the midpoint of inhibition, the IC50, lay at 30.8 nM. Further, in assay [1] (1.0 μM test compound), the inhibition at 1 µM came to 97.3%. The inhibition at 0.5 µM in assay [2] turned out to be 47.9%.

As to `CCOC(=O)CCc1c(/C=C2\C(=O)Nc3cc(-c4ccc(O)cc4)ccc32)[nH]c2c1C(=O)CCC2` [DCB-70066, (Z)-6-(4-hydroxyphenyl)-3-((3-(3-ethoxy-3-oxopropyl)-4-oxo-4,5,6,7-tetrahydro-1H-indol-2-yl)methylene)indolin-2-one], the inhibition at 1 µM in assay [1] (1.0 μM test compound) turned out to be 40.1%. In addition, in assay [2], the inhibition at 0.5 µM was determined as 94.3%.

Regarding `CCOC(=O)CCc1c(/C=C2\C(=O)Nc3ccc(-c4ccc(OC)c(OC)c4)cc32)[nH]c2c1C(=O)CCC2` [DCB-70067, (Z)-5-(3,4-dimethoxyphenyl)-3-((3-(3-ethoxy-3-oxopropyl)-4-oxo-4,5,6,7-tetrahydro-1H-indol-2-yl)methylene)indolin-2-one], the inhibition at 1 µM in assay [1] (1.0 μM test compound) was found to be 5.2%. For the same molecule, the inhibition at 0.5 µM in assay [2] came to 27.2%.

Molecule `COc1ccc(-c2ccc3c(c2)/C(=C/c2[nH]c4c(c2CCC(=O)O)C(=O)CCC4)C(=O)N3)cc1OC` [DCB-70068, (Z)-5-(3,4-dimethoxyphenyl)-3-((3-carboxyethyl-4-oxo-4,5,6,7-tetrahydro-1H-indol-2-yl)methylene)indolin-2-one] gave an IC50 in assay [1] of 560 nM. Further, the inhibition at 1 µM in assay [1] (1.0 μM test compound) was 54%. Besides, in assay [2], the inhibition at 0.5 µM amounted to 48.4%.

Consider `CCOC(=O)CCc1c(/C=C2\C(=O)Nc3ccc(-c4cc5ccccc5s4)cc32)[nH]c2c1C(=O)CCC2` [DCB-70069, (Z)-5-(benzo[b]thiophen-2-yl)-3-((3-(3-ethoxy-3-oxopropyl)-4-oxo-4,5,6,7-tetrahydro-1H-indol-2-yl)methylene)indolin-2-one], for which the inhibition at 1 µM in assay [1] (1.0 μM test compound) was 16.5%. For the same molecule, the inhibition at 0.5 µM in assay [2] turned out to be 11.4%.

Consider `O=C(O)CCc1c(/C=C2\C(=O)Nc3ccc(-c4cc5ccccc5s4)cc32)[nH]c2c1C(=O)CCC2` [DCB-70070, (Z)-5-(benzo[b]thiophen-2-yl)-3-((3-carboxyethyl-4-oxo-4,5,6,7-tetrahydro-1H-indol-2-yl)methylene)indolin-2-one], for which, in assay [1] (1.0 μM test compound), the inhibition at 1 µM turned out to be 31.4%. Also, in assay [2], the inhibition at 0.5 µM is 45.5%.

`O=C(O)CCc1c(/C=C2\C(=O)Nc3ccc(S(=O)(=O)Cc4ccccc4)cc32)[nH]c2c1C(=O)CCC2` [DCB-70071, (Z)-5-benzylsulfonyl-3-((3-carboxyethyl-4-oxo-4,5,6,7-tetrahydro-1H-indol-2-yl)methylene)indolin-2-one] registered an IC50 in assay [1] of 270 nM. Further, the inhibition at 1 µM in assay [1] (1.0 μM test compound) came out at 82.1%. Also, in assay [2], the inhibition at 0.5 µM is 91.8%.

The molecule `O=C(O)CCc1c(/C=C2\C(=O)Nc3ccc(S(=O)(=O)Cc4ccc(F)cc4)cc32)[nH]c2c1C(=O)CCC2` [DCB-70072, (Z)-5-(4-fluorobenzylsulfonyl)-3-((3-carboxyethyl-4-oxo-4,5,6,7-tetrahydro-1H-indol-2-yl)methylene)indolin-2-one] returned an IC50 in assay [1] of 443 nM. Further, in assay [1] (1.0 μM test compound), the inhibition at 1 µM was found to be 71.1%. The inhibition at 0.5 µM in assay [2] was found to be 86%.

As for `O=C(O)CCc1c(/C=C2\C(=O)Nc3ccc(S(=O)(=O)Cc4c(Cl)cccc4Cl)cc32)[nH]c2c1C(=O)CCC2` [DCB-70073, (Z)-5-(2,6-dichlorobenzylsulfonyl)-3-((3-carboxyethyl-4-oxo-4,5,6,7-tetrahydro-1H-indol-2-yl)methylene)indolin-2-one], the inhibition at 1 µM in assay [1] (1.0 μM test compound) came out at 65.5%. For the same molecule, the inhibition at 0.5 µM in assay [2] turned out to be 71.3%.

For the molecule `CCOC(=O)CCc1c(/C=C2\C(=O)Nc3ccc(NC(=O)c4ccc(F)cc4)cc32)[nH]c2c1C(=O)CCC2` [DCB-70074, (Z)-5-(4-fluorobenzamido)-3-((3-(3-ethoxy-3-oxopropyl)-4-oxo-4,5,6,7-tetrahydro-1H-indol-2-yl)methylene)indolin-2-one], the inhibition at 1 µM in assay [1] (1.0 μM test compound) came out at 19.3%. Also, the inhibition at 0.5 µM in assay [2] amounted to 25%.
